pIC50: −log10 of the molar value. Values after ≈ are worked out from the molar mass of the structure shown. One block for each compound: values may come before it.
Columns and labels:
Ca channel = experiment: Cardiovascular safety pharmacology: Ca channel; assay type: cell-based; conditions: read-out: Ca channel IC50
Na channel = experiment: Cardiovascular safety pharmacology: Na channel; assay type: cell-based; conditions: read-out: Na channel IC50
Solubility = assay type: physicochemical
mGlu3 = mGlu3 (Homo sapiens, UniProt Q14832); experiment: mGlu selectivity: mGlu3 antagonist activity; assay type: cell-based
mGlu1 = mGlu1 (Homo sapiens, UniProt Q13255); experiment: mGlu selectivity; assay type: cell-based
mGlu2 = mGlu2 (Homo sapiens, UniProt Q14416); experiment: mGlu selectivity; assay type: cell-based
mGlu4 = mGlu4 (Homo sapiens, UniProt Q14833); experiment: mGlu selectivity; assay type: cell-based
mGlu6 = mGlu6 (Homo sapiens, UniProt O15303); experiment: mGlu selectivity; assay type: cell-based
mGlu7 = mGlu7 (Homo sapiens, UniProt Q14831); experiment: mGlu selectivity; assay type: cell-based
mGlu8 = mGlu8 (Homo sapiens, UniProt O00222); experiment: mGlu selectivity; assay type: cell-based
[1] = system: amphetamine-induced hyperlocomotion (AHL); experiment: Reversal of amphetamine-induced hyperlocomotion; assay type: in vivo, male, Sprague Dawley rats
human mGlu5 = human mGlu5 (Homo sapiens, UniProt P41594); experiment: Calcium mobilization assay using HEK293 expressing human mGlu5; assay type: cell-based
mGlu5 = experiment: Leftward fold-shift of a full glutamate concentration-response curve; assay type: cell-based; conditions: human and rat receptors, equal magnitude
[2] = Predicted hepatic clearance; assay type: in vitro ADME; conditions: human
[3] = Predicted hepatic clearance; assay type: in vitro ADME; conditions: rat

Chain of human mGlu5 (P41594 21-1212): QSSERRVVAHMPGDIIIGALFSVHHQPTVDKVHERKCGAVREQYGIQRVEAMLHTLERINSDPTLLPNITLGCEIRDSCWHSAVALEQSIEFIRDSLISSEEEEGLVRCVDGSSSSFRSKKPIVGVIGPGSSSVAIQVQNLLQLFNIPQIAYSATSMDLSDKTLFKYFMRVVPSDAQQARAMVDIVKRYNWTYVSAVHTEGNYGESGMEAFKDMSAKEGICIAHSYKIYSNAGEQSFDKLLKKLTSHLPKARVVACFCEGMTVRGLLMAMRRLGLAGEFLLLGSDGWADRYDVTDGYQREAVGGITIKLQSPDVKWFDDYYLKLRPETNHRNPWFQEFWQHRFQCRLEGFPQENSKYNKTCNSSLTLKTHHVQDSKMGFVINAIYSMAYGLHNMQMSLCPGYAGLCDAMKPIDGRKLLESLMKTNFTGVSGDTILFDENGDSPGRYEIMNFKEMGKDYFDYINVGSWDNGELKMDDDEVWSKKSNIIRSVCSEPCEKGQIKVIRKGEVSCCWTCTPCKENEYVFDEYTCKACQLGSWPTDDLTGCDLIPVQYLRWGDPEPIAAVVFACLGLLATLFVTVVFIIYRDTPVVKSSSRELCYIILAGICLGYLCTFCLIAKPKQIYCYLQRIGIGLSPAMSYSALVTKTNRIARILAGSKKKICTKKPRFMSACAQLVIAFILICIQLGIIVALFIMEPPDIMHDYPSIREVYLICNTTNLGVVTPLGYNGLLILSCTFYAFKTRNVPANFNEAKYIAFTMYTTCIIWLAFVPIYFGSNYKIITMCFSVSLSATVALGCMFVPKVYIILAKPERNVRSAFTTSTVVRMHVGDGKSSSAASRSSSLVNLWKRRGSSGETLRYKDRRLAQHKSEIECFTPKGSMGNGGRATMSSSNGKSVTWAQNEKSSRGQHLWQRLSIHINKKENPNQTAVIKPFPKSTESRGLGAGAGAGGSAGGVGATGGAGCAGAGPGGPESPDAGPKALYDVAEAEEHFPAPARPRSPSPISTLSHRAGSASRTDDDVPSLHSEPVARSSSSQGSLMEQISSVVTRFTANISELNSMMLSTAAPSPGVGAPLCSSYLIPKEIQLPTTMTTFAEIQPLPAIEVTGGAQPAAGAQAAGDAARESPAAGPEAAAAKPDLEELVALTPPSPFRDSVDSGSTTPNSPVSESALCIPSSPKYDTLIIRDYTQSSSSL
Chain of mGlu3 (Q14832 23-879): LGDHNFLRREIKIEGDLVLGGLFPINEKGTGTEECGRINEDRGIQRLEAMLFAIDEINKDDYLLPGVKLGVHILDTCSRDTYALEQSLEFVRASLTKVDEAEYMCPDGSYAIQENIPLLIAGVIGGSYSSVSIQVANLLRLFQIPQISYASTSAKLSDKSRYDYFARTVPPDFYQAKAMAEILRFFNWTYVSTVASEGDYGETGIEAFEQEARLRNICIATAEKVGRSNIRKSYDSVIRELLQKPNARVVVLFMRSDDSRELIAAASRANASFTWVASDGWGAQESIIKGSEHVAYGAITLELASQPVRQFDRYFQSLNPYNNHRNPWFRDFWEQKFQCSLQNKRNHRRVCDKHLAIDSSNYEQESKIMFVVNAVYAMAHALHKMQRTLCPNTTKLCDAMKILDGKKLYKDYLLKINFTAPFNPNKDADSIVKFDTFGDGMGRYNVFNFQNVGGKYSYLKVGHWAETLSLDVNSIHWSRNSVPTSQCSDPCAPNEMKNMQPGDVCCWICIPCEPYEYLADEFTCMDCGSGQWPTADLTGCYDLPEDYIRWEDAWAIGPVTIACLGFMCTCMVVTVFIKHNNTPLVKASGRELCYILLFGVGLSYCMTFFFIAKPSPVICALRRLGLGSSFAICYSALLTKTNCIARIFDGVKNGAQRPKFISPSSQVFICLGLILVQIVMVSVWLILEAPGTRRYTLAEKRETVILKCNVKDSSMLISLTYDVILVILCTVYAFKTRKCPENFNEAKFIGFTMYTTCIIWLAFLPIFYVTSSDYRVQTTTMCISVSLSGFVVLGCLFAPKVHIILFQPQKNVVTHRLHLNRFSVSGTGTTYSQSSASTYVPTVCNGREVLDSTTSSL
Chain of mGlu2 (Q14416 19-872): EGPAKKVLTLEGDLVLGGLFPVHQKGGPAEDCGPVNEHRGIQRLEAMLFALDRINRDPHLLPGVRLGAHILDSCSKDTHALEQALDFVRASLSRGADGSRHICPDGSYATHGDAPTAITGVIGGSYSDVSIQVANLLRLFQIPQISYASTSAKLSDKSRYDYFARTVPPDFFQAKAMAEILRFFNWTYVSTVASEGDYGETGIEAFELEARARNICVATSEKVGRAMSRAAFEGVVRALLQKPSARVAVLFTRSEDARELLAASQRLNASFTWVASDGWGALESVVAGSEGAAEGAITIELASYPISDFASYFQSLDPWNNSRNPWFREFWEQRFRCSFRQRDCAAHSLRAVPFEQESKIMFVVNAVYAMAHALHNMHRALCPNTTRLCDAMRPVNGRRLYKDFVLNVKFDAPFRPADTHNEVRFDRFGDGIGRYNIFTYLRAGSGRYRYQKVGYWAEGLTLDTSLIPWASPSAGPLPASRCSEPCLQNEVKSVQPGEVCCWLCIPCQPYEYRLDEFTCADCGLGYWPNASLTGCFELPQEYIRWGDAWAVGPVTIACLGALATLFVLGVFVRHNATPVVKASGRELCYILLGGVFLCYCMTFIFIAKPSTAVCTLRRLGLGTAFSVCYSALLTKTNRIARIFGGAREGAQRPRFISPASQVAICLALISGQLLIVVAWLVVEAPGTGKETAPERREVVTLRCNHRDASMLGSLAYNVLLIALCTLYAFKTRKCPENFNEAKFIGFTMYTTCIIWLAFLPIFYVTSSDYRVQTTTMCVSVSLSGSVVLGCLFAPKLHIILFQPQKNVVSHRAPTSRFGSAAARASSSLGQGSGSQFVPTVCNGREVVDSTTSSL
Chain of mGlu1 (Q13255 19-1194): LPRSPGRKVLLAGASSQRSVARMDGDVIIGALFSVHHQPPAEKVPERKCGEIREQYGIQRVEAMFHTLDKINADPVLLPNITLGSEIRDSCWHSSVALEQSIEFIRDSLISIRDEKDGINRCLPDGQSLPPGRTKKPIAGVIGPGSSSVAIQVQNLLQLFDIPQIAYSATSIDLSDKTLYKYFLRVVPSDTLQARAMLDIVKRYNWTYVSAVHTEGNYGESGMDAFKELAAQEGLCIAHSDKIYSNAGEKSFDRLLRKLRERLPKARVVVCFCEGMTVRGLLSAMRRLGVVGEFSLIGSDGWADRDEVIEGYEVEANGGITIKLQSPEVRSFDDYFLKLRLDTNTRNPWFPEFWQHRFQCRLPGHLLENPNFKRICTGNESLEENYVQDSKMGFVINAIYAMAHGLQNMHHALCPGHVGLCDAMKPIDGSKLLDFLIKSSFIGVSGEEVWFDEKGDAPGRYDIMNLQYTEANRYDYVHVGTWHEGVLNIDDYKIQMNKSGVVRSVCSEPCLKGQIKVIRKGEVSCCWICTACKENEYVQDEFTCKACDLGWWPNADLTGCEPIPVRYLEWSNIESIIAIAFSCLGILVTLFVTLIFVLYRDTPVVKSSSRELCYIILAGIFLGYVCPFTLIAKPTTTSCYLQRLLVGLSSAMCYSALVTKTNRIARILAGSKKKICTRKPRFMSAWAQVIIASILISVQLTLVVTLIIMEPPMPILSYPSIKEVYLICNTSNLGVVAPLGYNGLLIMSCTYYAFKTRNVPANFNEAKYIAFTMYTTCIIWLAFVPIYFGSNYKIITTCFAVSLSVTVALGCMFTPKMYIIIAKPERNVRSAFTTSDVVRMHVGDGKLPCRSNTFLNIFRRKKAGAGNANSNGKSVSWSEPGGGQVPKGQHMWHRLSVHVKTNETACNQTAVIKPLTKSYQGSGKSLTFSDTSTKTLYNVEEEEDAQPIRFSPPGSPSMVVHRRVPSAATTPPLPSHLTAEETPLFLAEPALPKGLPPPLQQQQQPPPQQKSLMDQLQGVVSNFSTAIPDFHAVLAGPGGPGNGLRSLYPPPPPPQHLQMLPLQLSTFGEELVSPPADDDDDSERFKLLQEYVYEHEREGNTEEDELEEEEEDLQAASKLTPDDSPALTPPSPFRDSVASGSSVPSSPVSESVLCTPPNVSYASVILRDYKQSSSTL
Chain of mGlu7 (Q14831 35-915): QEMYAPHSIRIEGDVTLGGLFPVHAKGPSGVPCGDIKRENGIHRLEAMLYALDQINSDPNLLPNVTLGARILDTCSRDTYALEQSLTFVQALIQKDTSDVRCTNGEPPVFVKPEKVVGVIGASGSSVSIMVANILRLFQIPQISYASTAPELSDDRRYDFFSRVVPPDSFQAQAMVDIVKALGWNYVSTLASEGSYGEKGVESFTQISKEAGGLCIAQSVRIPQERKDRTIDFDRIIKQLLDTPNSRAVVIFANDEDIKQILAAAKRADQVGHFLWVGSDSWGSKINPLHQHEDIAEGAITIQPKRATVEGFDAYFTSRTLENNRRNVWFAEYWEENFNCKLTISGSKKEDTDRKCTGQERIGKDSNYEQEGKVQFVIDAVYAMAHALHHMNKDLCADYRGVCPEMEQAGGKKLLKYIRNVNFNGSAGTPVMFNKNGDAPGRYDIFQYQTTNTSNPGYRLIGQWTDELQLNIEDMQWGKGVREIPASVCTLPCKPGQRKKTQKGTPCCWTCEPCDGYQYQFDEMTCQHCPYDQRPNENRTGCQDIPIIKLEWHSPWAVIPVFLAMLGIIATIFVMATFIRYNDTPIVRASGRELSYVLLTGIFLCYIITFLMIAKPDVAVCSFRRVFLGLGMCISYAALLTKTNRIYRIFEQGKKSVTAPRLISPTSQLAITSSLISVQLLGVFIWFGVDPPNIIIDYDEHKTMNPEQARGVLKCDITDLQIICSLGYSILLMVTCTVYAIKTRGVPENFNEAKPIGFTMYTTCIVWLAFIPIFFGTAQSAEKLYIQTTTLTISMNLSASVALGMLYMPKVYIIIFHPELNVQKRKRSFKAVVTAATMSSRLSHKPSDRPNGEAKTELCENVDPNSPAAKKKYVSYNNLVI

solubility (in words) (Solubility): poor solubility
Structure (SMILES): O=C(c1n[nH]c2ccccc12)N1CCc2nc(COc3ccccc3)oc2C1 [11e]

ago-PAM activity (human mGlu5): modest ago-PAM activity | ligand efficiency (human mGlu5): 0.31 | predicted hepatic clearance CLhep [2]: 9.1 mL/min/kg | predicted hepatic clearance CLhep [3]: 36 mL/min/kg
Structure (SMILES): O=C(c1n[nH]c2ncccc12)N1CCc2nc(COc3ccccc3)oc2C1 [11h]
fold-shift (mGlu5): 7.3–9.3 x | MED in AHL, fold higher than for 1 ([1]; relative to 1): 3 fold

The next lines start with the compound.

Structure (SMILES): O=C(c1ccc(F)cc1)N1CCc2nc(COc3cccc(F)c3)oc2C1 [4b]
pIC50 (Ca channel): < 5.00 | pIC50 (Na channel): < 5.00 | solubility (Solubility; FaSSIF): 10 µg/mL (≈ 27 µM) | solubility (Solubility; SGF): 10 µg/mL (≈ 27 µM) | solubility, fold lower than 1 (Solubility; relative to 1): 3 × | pIC50 (mGlu3): 6.39 | mGlu3 Glu min (mGlu3; % Glu min): 8% | activity versus mGlu1 (mGlu1): > 10 µM | activity versus mGlu2 (mGlu2): > 10 µM | activity versus mGlu4 (mGlu4): > 10 µM | activity versus mGlu6 (mGlu6): > 10 µM | activity versus mGlu7 (mGlu7): > 10 µM | activity versus mGlu8 (mGlu8): > 10 µM | minimum effective dose in AHL ([1]; rat, po): 30 mpk

Structure (SMILES): O=C(c1cc2ccccc2[nH]1)N1CCc2nc(COc3ccccc3)oc2C1 [11a]
mGlu5 PAM activity (in words) (human mGlu5): inactive

Structure (SMILES): O=C(c1c[nH]c2ccccc12)N1CCc2nc(COc3ccccc3)oc2C1 [11c]
solubility (in words) (Solubility): poor solubility

Source: article PMC4535329 (Bioorganic & medicinal chemistry letters, 2015)
